Source: patent publication US20070191400A1, “Pharmaceutical compositions comprising anti-inflammatory quinazolinecarboxamide derivatives” (Rimonyx Pharmaceuticals Ltd., priority 2004, published 2007)
One block for each molecule: values may come before it.

Experiments:
[1] = target: T1, Recombinant Human L-Selectin/IgG binding to heparin (Homo sapiens, UniProt P14151); test: Inhibition of L-selectin binding to heparin (ELISA, immobilized heparin-BSA); settings: for inhibition at 30 µM: read-out: % Inhibition at 30 microMolar conc. (L-Selectin binding to heparin); for IC50: compounds tested at 0.01 to 300 μM, representative results, read-out: IC-50, inhibition of L-Selectin binding to heparin
T1 construct: purchased Research and Development Systems 728-LS
T1 sequence (P14151 39-332 limits assumed): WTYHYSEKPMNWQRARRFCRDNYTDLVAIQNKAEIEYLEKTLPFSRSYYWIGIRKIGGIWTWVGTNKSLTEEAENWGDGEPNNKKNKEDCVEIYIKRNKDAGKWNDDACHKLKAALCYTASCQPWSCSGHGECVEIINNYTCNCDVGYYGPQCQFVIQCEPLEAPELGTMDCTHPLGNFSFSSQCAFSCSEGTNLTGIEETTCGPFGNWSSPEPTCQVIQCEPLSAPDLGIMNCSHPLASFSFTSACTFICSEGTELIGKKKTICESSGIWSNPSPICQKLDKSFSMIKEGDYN
Experimental: An in vitro assay was used to assess the ability of test compounds according to formula I to inhibit the interactions of L-selectin with HS-GAGs. The assay was suitable for determining the concentration required for 50% inhibition (IC-50) for each specific compound. In the assay, the GAG used was heparin. Thus, porcine intestinal mucosa heparin conjugated to Bovine Serum Albumin (Heparin-BSA; Sigma Cat. No. H0403) at 5 mg/ml in Phosphate-Buffered Saline (PBS; pH 6.5) was added to a 96-well polystyrene ELISA plate (NUNC Cat. No. 442404; 0.1 ml per well) and incubated over night at 4° C. Following the incubation, the plate was washed thoroughly, by immersion, with de-ionized water and PBS (pH 6.5). The ELISA plate was then blocked with BSA (ICN Cat. No.160069, 3%, 200 μl per well) for 1 hour at room temperature. Following blocking, the plate was washed with de-ionized water, and then with PBS (pH 6.5) containing Tween 20 (Sigma Cat. No. P-1379, 0.05%). Compounds were synthesized or purchased from suppliers of chemical compounds such as ChemDiv Labs (San Diego, Calif.), dissolved in DMSO, diluted in PBS and added to the wells at various concentrations in the range of 0.01 to 300 μM. Recombinant Human L-Selectin/IgG (Research and Development Systems Cat. No.728-LS) dissolved in PBS supplemented with BSA (0.1%) and calcium chloride (1 mM) was added to the ELISA plate (100 μl per well) and incubated for 60 minutes at room temperature with shaking. Following incubation, the plate was washed with de-ionized water and three times with PBS (pH 6.5) containing Tween 20. Anti-Human IgG Peroxidase Conjugate (1:5000; Sigma Product No. A8667) diluted in PBS supplemented with BSA (0.1%) and calcium chloride (1 mM) was added to the ELISA plate (100 μl per well) and incubated for 30 minutes at room temperature with shaking. The plate was then washed with de-ionized water and three times with PBS (pH 6.5) containing Tween 20. The peroxidase substrate chromogen tetramethyl benzidine (TMB; Dako Cat. No. S1599) was added (100 μl per well) to the ELISA plate and incubated at room temperature. After 15 minutes, ELISA Stop Solution (hydrochloric acid 1N, sulfuric acid 3N) was added (200 μl per well) to stop the peroxidase catalyzed colorimetric reaction. The Optical Density (OD) of the samples was measured at 450 nm using an ELISA plate reader (Dynatech MR5000). Data were analyzed with Graphpad Prism software and IC-50 values were established.

[2] = system: BALB/c mice; test: Delayed-type hypersensitivity (DTH), oxazolone mouse ear-swelling test; type: in vivo; settings: 25 mg/kg per os, 1 hr prior to challenge; 24 hours after challenge
Experimental: BALB/c mice (Velaz, Prague, Czech Republic; 8 weeks old; 15 animals per group) were sensitized by topical application of a 2% oxazolone (4-ethoxymethylene -2-phenyl-2-oxazoline-5-one; Sigma, St Louis, Mo.) solution in acetone/olive oil (4:1 vol/vol) to shaved abdomen (50 μl) and to each paw (5 μl) (Lange-Asschenfeldt B. et al., Blood 99:538-545, 2002). Five days after sensitization, right ears were challenged by topical application of 10 μl of a 1% oxazolone solution, whereas left ears were treated with vehicle alone. Compounds were administered 1 hr prior to challenge. The extent of inflammation was measured 24 hours after challenge, using the mouse ear-swelling test. Animals were numbered (tail marking) and weighed and the thickness of both ears was recorded with a constant-loading dial micrometer (Mitutoyo, Tokyo). The unpaired Student t-test was used for statistical analyses.

[3] = target: T2, CMV envelope glycoprotein B binding to immobilized heparin (Human cytomegalovirus, UniProt P06473); test: Inhibition of CMV envelope glycoprotein B binding to immobilized heparin (ELISA); settings: for inhibition at 100 µM: read-out: % Inhibition at 100 microMolar conc. (CMV envelope glycoprotein B binding to immobilized heparin); for inhibition at 30 µM: read-out: % Inhibition at 30 microMolar conc. (CMV envelope glycoprotein B binding to immobilized heparin)
T2 construct: purchased Research Diagnostics, INC; RDI-RCMVAG-B
Experimental: Porcine intestinal mucosa heparin conjugated to Bovine Serum Albumin (Heparin-BSA; Sigma Cat. No. H0403) at 5 mg/ml in Phosphate-Buffered Saline (PBS; pH 6.5) was added to a 96-well polystyrene ELISA plate (NUNC Cat. No. 442404; 0.1 ml per well) and incubated over night at 4° C. Following the incubation, the plate was washed consecutively, by immersion, with de-ionized water and PBS (pH 6.5). The ELISA plate was then blocked with BSA (ICN Cat. No. 160069, 3%, 200 μl per well) for 1 hour at room temperature. Following blocking, the plate was washed with de-ionized water, and then with PBS (pH 6.5) plus Tween 20 (0.05%). CMV envelope glycoprotein B (Research Diagnostics, INC. Cat. No. RDI-RCMVAG-B) dissolved in PBS (supplemented with BSA (0.1%)) was added to the ELISA plate (100 μl per well) and incubated for 60 minutes at room temperature with shaking. Following incubation, the plate was washed with de-ionized water and with PBS (pH 6.5) plus Tween. Mouse anti-human Cytomegalovirus gB antibody (Research Diagnostics, INC. Cat. No. RDI-CMVG Babm) diluted in PBS (supplemented with BSA(0.1%)), 1:2000, was added to the ELISA plate (100 μl per well) and incubated for 90 minutes at room temperature with shaking. Following the incubation, the plate was washed with de-ionized water and PBS (pH 6.5) plus Tween. Goat anti-Mouse IgG (H&L) Peroxidase Conjugated antibody (Chemicon International, Inc. Cat. No. AP124P) diluted in PBS (supplemented with BSA (0.1%)), 1:1000, was added to the ELISA plate (100 μl per well) and incubated for 30 minutes at room temperature with shaking. Following the incubation, the plate was washed with de-ionized water and with PBS (pH 6.5) plus Tween. The peroxidase substrate chromogen, TMB (Dako Cat. No. S1599) was added (100 μl per well) to the ELISA plate and incubated at room temperature. After 15 minutes, ELISA Stop Solution (hydrochloric acid iN, sulfuric acid 3N) was added (200 μl per well) to stop the peroxidase catalyzed colorimetric reaction. The Optical Density (OD) of the samples was measured at 450 nm using an ELISA plate reader (Dynatech MR5000).
The CMV envelope glycoprotein B (GBVP) binding assay described above was used to screen a synthetic chemical compound collection on 96-well plates. The compound collection was purchased from ChemDiv Inc. (San Diego, Calif.). […] Individual compounds at a final concentration of 30 or 100 μM were co-incubated with the GBVP on plates containing immobilized heparin and, following washing, bound GBVP was detected with anti-CMV GBVP antibody and secondary antibody conjugated to horseradish peroxidase, as described above. Following color development, the % inhibition compared to control (no compound) for every compound was determined. Compounds that inhibited at least 30% of the signal were scored as hits.

[4] = system: BALB/c mice; test: Carrageenan-induced paw edema; type: in vivo, mouse
Experimental: Acute edema was induced in the left hind paw of BALB/c mice (12 mice/group) by injecting 0.02 ml of freshly prepared solution of 2% carrageenan (Sigma) after 60 min of test compound administration (Torres, S. R. et al., European Journal of Pharmacology 408: 199-211, 2000). […], which served as a control. Carrageenan was injected under the plantar region of […] and the paw thickness was measured at 2,4 and 24 hours after carrageenan challenge using a Mitutoyo engineer's micrometer expressed as the difference between right and left pad as mean ±SEM.

[5] = system: BALB/c mice; test: Thioglycollate-induced leukocyte and neutrophil infiltration into mouse peritoneum; type: in vivo; settings: 10 mg/kg i.p.
Experimental: BALB/c mice (Velaz, Prague; 6 weeks old, ˜20 g in weight, 15 mice/group) received intraperitoneal injection of an inhibitor compound in 0.2 ml DMSO/Tween/sterile saline 1 hour before administration of thioglycollate (Sigma). Control groups received vehicle and sham controls received no thioglycollate. Mice were injected intraperitoneally with 1 ml of 3% thioglycollate broth (Xie, X. et al., J. Biol. Chem., 275, 34818-34825, 2000). Mice were sacrificed after 3 hours, and the peritoneal cavities were lavaged with 5 ml of ice-cold saline containing 2 mM EDTA to prevent clotting. After red blood cell lysis, leukocytes were counted in a hemocytometer. Neutrophils were counted after staining with Türck's reagent (Merck, Darmstadt, Germany). Data was expressed as mean ±SEM, and statistical analysis was performed by Student t test. A value of p<0.05 was taken to denote statistical significance.

T2 sequence (P06473 32-906): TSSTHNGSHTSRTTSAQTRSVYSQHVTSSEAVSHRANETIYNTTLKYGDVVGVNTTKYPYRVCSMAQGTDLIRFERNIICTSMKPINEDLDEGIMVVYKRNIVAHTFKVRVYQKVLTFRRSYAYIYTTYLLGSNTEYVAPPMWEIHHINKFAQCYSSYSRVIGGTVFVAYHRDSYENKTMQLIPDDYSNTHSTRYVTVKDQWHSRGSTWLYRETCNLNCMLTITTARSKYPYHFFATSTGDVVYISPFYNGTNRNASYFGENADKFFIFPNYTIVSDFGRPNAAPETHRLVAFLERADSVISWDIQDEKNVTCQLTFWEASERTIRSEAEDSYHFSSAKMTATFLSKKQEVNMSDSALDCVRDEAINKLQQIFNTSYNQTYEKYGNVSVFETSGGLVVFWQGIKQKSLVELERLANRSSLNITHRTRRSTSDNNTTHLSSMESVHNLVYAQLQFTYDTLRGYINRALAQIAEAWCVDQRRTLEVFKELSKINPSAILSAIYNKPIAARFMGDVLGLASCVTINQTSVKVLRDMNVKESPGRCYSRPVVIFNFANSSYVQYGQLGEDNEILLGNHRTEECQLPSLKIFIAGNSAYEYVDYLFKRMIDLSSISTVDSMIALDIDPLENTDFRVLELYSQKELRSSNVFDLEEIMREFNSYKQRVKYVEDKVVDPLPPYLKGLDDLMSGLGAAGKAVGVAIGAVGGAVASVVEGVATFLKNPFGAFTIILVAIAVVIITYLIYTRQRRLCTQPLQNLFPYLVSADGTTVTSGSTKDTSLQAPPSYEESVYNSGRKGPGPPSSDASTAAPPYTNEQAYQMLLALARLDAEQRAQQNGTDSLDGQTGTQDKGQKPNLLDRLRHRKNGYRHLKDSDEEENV

Molecule: COCCNC(=O)c1ccc2c(=O)n(Cc3ccco3)c(SCc3cc(=O)n4ccccc4n3)nc2c1 [Compound 5, 2-[[(4-oxo-4H-pyrido [1,2-a]pyrimidin-2-yl)methyl]thio]-3-(2-furanylmethyl) -3,4-dihydro-4-oxo-N-(2-methoxyethyl)-7-quinazolinecarboxamide]
inhibition at 30 µM [1]: 50%
inhibition at 100 µM ([1]; read-out: % Inhibition at 100 microMolar conc. (L-Selectin binding to heparin)): 52%

Molecule: Cc1ccc(CSc2nc3cc(C(=O)NCCCN4CCOCC4)ccc3c(=O)n2-c2ccc(F)cc2)cc1 [Compound 2, 2-[[(4-methylphenyl)methyl]thio]-3-(4-fluorophenyl)-3,4-dihydro-4-oxo-N-[3-(4-morpholinyl)propyl]-7-quinazolinecarboxamide]
Inhibition of DTH (difference in ear thickness) [2]: inhibited DTH
inhibition at 100 µM [3]: 86%
IC50 [1]: 24 ± 1.2 µM

Molecule: O=C(CSc1nc2cc(C(=O)NCCCN3CCCCC3)ccc2c(=O)n1CC1CCCO1)c1ccccc1 (stereo not shown) [Compound 6, 2-[(2-oxo-2-phenylethyl)thio]-3-[(tetrahydro-2-furanyl)methyl]-3,4-dihydro-4-oxo -N-[3-(1-piperidinyl)propyl]-7-quinazolinecarboxamide]
inhibition at 30 µM [1]: 30%

Molecule: O=C(NCCCN1CCOCC1)c1ccc2c(=O)n(-c3ccc(F)cc3)c(SCc3cccc(F)c3)nc2c1 [Compound 3, 2-[[(3-fluorophenyl)methyl]thio]-3-(4-fluorophenyl)-3,4-dihydro-4-oxo-N-[3-(4-morpholinyl)propyl]-7-quinazolinecarboxamide]
inhibition at 30 µM [3]: 85%
inhibition at 100 µM [3]: 88%
IC50 [1]: 22 ± 1.2 µM

Molecule: O=C(NCCCN1CCOCC1)c1ccc2c(=O)n(-c3ccc(F)cc3)c(SCc3ccc(Cl)cc3)nc2c1 [Compound 1, 2-[[(4-chlorophenyl)methyl]thio]-3-(4-fluorophenyl)-3,4-dihydro-4-oxo-N-[3-(4-morpholinyl)propyl]-7-quinazolinecarboxamide]
inhibition at 30 µM [3]: 33%
Inhibition of paw edema (difference in paw thickness) ([4]; 1 mg/kg oral, 24 hours after induction): inhibited paw edema
IC50 [1]: 7 ± 1 µM
Leukocyte migration into the peritoneal cavity ([5]; 1 hour before thioglycollate, 3 hours): inhibited efficiently
Neutrophil accumulation in the peritoneal cavity ([5]; 3 hours after thioglycollate): 48 % of control value

Second part, led by results:

% Inhibition at 30 microMolar conc. (L-Selectin binding to heparin) ([1]; 30 microMolar): 59%
Molecule: 2-[[2-[[(3-chlorophenyl)methyl]thio]-3-pentyl-3,4-dihydro-4-oxo-N-(4-methylpiperazin -7-quinazolinecarboxamide [Compound 8]

IC50 [1]: 21 ± 1.6 µM
Molecule: CC(C)Cn1c(S)nc2cc(C(=O)NCCCn3ccnc3)ccc2c1=O [Compound 9, 2-mercapto-3-(2-methylpropyl-3)-3,4-dihydro-4-oxo-N-[3-(1N-imidazol-1-yl)propyl]-7-quinazolinecarboxamide]
Inhibition of paw edema (difference in paw thickness) ([4]; 50 mg/kg oral, measured after 24 hours): inhibited paw edema

inhibition at 30 µM [1]: 83%
Molecule: CCCCCn1c(SCc2ccncc2)nc2cc(C(=O)N3CCN(C(=O)OCC)CC3)ccc2c1=O [Compound 7, 4-[[3,4-dihydro-4-oxo-3-pentyl-2-[(4-pyridinylmethyl)thio]-7-quinazolinyl]carbonyl]-1-piperazinecarboxylic acid ethyl ester]

IC50 [1]: 22 ± 1.5 µM
Molecule: CN1CCN(C(=O)c2ccc3c(=O)n(-c4ccccc4)c(SCC(=O)C(C)(C)C)nc3c2)CC1 [Compound 10]
